pEC50, pIC50: −log10 of the molar value.
What was measured:
[1] = test system: Human immunodeficiency virus 1; assay: Antiviral activity against drug resistant HIV-1 harboring reverse transcriptase L100I mutant infected in human MT4 cells assessed as reduction in virus-induced cytopathic effect incubated for 5 days by MTT assay; assay type: functional, organism-based; conditions: Human immunodeficiency virus 1, MT4, 120 h
[2] = test system: Human immunodeficiency virus 1; assay: Antiviral activity against drug resistant HIV-1 harboring reverse transcriptase K103N mutant infected in human MT4 cells assessed as reduction in virus-induced cytopathic effect incubated for 5 days by MTT assay; assay type: functional, organism-based; conditions: Human immunodeficiency virus 1, MT4, 120 h
[3] = test system: Human immunodeficiency virus 1; assay: Antiviral activity against drug resistant HIV-1 harboring reverse transcriptase E138K mutant infected in human MT4 cells assessed as reduction in virus-induced cytopathic effect incubated for 5 days by MTT assay; assay type: functional, organism-based; conditions: Human immunodeficiency virus 1, MT4, 120 h
[4] = test system: Human immunodeficiency virus 1; assay: Antiviral activity against drug resistant HIV-1 RES056 harboring reverse transcriptase K103N/Y181C double mutant infected in human MT4 cells assessed as reduction in virus-induced cytopathic effect incubated for 5 days by MTT assay; assay type: functional, organism-based; conditions: Human immunodeficiency virus 1, RES056, MT4, 120 h
[5] = Selectivity index, ratio of CC50 for human MT4 cells to EC50 for antiviral activity against HIV IIIB; assay type: toxicity; conditions: read-out: Ratio CC50/EC50
[6] = Selectivity index, ratio of CC50 for human MT4 cells to EC50 for antiviral activity against HIV RES056; assay type: toxicity; conditions: read-out: Ratio CC50/EC50
[7] = test system: Human immunodeficiency virus 1; assay: Antiviral activity against drug resistant HIV-1 harboring reverse transcriptase Y181C mutant infected in human MT4 cells assessed as reduction in virus-induced cytopathic effect incubated for 5 days by MTT assay; assay type: functional, organism-based; conditions: Human immunodeficiency virus 1, MT4, 120 h
[8] = Cytotoxicity against human MT4 cells assessed as reduction in cell viability incubated for 5 days by MTT assay; assay type: cell-based
[9] = test system: Human immunodeficiency virus 1; assay: Antiviral activity against drug resistant HIV-1 harboring reverse transcriptase F227L/V106A double mutant infected in human MT4 cells assessed as reduction in virus-induced cytopathic effect incubated for 5 days by MTT assay; assay type: functional, organism-based; conditions: Human immunodeficiency virus 1, MT4, 120 h
[10] = test system: Human immunodeficiency virus 1; assay: Antiviral activity against HIV-1 3B infected in human MT4 cells assessed as reduction in virus-induced cytopathic effect incubated for 5 days by MTT assay; assay type: functional, organism-based; conditions: Human immunodeficiency virus 1, 3B, MT4, 120 h
[11] = test system: Human immunodeficiency virus 1; assay: Antiviral activity against drug resistant HIV-1 harboring reverse transcriptase Y188L mutant infected in human MT4 cells assessed as reduction in virus-induced cytopathic effect incubated for 5 days by MTT assay; assay type: functional, organism-based; conditions: Human immunodeficiency virus 1, MT4, 120 h
[12] = test system: Human immunodeficiency virus 1; assay: Potency index, ratio of EC50 of NVP to EC50 of compound for antiviral activity against HIV-1 3B infected in human MT4 cells assessed as reduction in virus-induced cytopathic effect incubated for 5 days by MTT assay; assay type: functional
[13] = test system: Human immunodeficiency virus 1; assay: Potency index, ratio of EC50 of AZT to EC50 of compound for antiviral activity against HIV-1 3B infected in human MT4 cells assessed as reduction in virus-induced cytopathic effect incubated for 5 days by MTT assay; assay type: functional
[14] = target: Human immunodeficiency virus type 1 reverse transcriptase (Human immunodeficiency virus 1, UniProt Q72547); assay: Inhibition of HIV1 reverse transcriptase assessed as inhibition of biotin-dUTP incorporation into template incubated for 1 hr by ELISA
[15] = Sub-acute toxicity in Kunming mouse assessed as increase in alveolar hemorrhage administered for 14 days measured on day 14 by HE-staining based assay; conditions: in vivo, 336 h
[16] = Sub-acute toxicity in Kunming mouse assessed as increase in alveolar interstitial thickening administered for 14 days measured on day 14 by HE-staining based assay; conditions: in vivo, 336 h
[17] = Sub-acute toxicity in Kunming mouse assessed as increase in proximal convoluted tubule edema administered for 14 days measured on day 14 by HE-staining based assay; conditions: in vivo, 336 h

Compound	pEC50 [1]	pEC50 [2]	pEC50 [3]	pEC50 [4]	selectivity ratio [5]	selectivity ratio [6]	pEC50 [7]	CC50 at 120 h [8]	pEC50 [9]	pEC50 [10]	pEC50 [11]	Ratio EC50 [12]	Ratio EC50 [13]	pIC50 [14]	Activity [15]	Activity [16]	Activity [17]
Cc1cc(C)cc(S(=O)(=O)c2c(C(=O)NS(=O)(=O)c3ccc(F)cc3)[nH]c3ccc(Cl)cc23)c1	5.00	4.67	5.42	< 3.60	> 86	< 1	4.34	> 253 µM	4.41	5.53	< 3.60	–	–	–	–	–	–
Cc1cc(C)cc(S(=O)(=O)c2c(C(=O)NC3CN(CC(N)=O)C3)[nH]c3ccc(Cl)cc23)c1	–	–	–	< 4.59	1940	< 1	–	25.5 µM	–	7.89	–	–	–	–	–	–	–
Cc1cc(C)cc(S(=O)(=O)c2c(C(=O)N[C@H]3CCN(S(C)(=O)=O)C3)[nH]c3ccc(Cl)cc23)c1	–	–	–	< 4.52	7080	< 1	–	29.9 µM	–	8.37	–	60	2.3	6.21	–	–	–
CCS(=O)(=O)NC(=O)c1[nH]c2ccc(Cl)cc2c1S(=O)(=O)c1cc(C)cc(C)c1	5.36	4.99	6.23	< 3.55	> 96	–	4.89	> 284 µM	4.95	5.53	< 3.55	–	–	–	–	–	–
CCOP(=O)(CCNC(=O)c1[nH]c2ccc(Cl)cc2c1S(=O)(=O)c1cc(C)cc(C)c1)OCC	5.17	5.46	5.92	< 3.88	100	< 1	5.17	131 µM	5.14	5.88	< 3.88	–	–	–	–	–	–
Cc1cc(C)cc(S(=O)(=O)c2c(C(=O)NS(=O)(=O)C3CC3)[nH]c3ccc(Cl)cc23)c1	5.09	4.92	6.48	< 3.83	57	< 1	4.73	147 µM	4.93	5.59	< 3.83	–	–	–	–	–	–
Cc1cc(C)cc(S(=O)(=O)c2c(C(=O)NS(=O)(=O)C(F)(F)F)[nH]c3ccc(Cl)cc23)c1	5.85	5.61	6.04	< 3.85	393	< 1	5.26	141 µM	5.45	6.44	< 3.85	–	–	–	–	–	–
Cc1cc(C)cc(S(=O)(=O)c2c(C(=O)N[C@@H]3CCN(S(C)(=O)=O)C3)[nH]c3ccc(Cl)cc23)c1	–	–	–	5.12	5190	3	–	23.9 µM	–	8.33	–	55	2.1	–	–	–	–
CCCS(=O)(=O)NC(=O)c1[nH]c2ccc(Cl)cc2c1S(=O)(=O)c1cc(C)cc(C)c1	4.96	4.76	6.37	< 3.84	61	< 1	4.53	146 µM	4.69	5.62	< 3.84	–	–	–	–	–	–
Cc1cc(C)cc(S(=O)(=O)c2c(C(=O)N[C@@H]3CCN(CC(N)=O)C3)[nH]c3ccc(Cl)cc23)c1	–	–	–	< 4.51	3170	< 1	–	31 µM	–	8.01	–	–	–	5.83	–	–	–
Cc1cc(C)cc(S(=O)(=O)c2c(C(=O)NS(=O)(=O)c3ccc(F)cc3F)[nH]c3ccc(Cl)cc23)c1	5.05	4.82	5.39	< 3.92	37	< 1	< 3.92	121 µM	4.52	5.49	< 3.92	–	–	–	–	–	–
Cc1cc(C)cc(S(=O)(=O)c2c(C(=O)NS(C)(=O)=O)[nH]c3ccc(Cl)cc23)c1	–	–	–	≤ 5.03	4180	≤ 4	–	40.1 µM	–	8.02	–	–	–	–	–	–	–
Cc1cc(C)cc(S(=O)(=O)c2c(C(=O)NC3CN(Cc4n[nH]c(=O)n4C)C3)[nH]c3ccc(Cl)cc23)c1	6.98	6.29	6.55	< 4.60	224	> 224	5.77	25.2 µM	5.93	6.96	5.67	–	–	–	–	–	–
Cc1cc(C)cc(S(=O)(=O)c2c(C(=O)NS(=O)(=O)c3ccccc3)[nH]c3ccc(Cl)cc23)c1	5.66	5.49	5.70	< 3.78	96	< 1	5.27	167 µM	5.13	5.76	< 3.78	–	–	–	–	–	–
Cc1cc(C)cc(S(=O)(=O)c2c(C(N)=O)[nH]c3ccc(Cl)cc23)c1	7.77	7.74	6.04	< 4.89	3130	< 1	7.57	13 µM	8.02	8.39	–	–	–	6.25	–	–	–
O=C1Nc2ccc(Cl)cc2[C@@](C#CC2CC2)(C(F)(F)F)O1 [EFAVIRENZ]	–	–	–	6.59	–	–	8.08	> 6.35 µM	6.60	8.07	6.57	–	–	–	–	–	–
Cc1cc(C#N)cc(C)c1Oc1nc(Nc2ccc(C#N)cc2)nc(N)c1Br [ETRAVIRINE]	8.21	8.54	8.22	7.72	> 792	> 238	7.89	> 4.61 µM	7.80	8.24	7.64	–	–	–	Toxic	Toxic	Toxic
Nc1ccn([C@@H]2CS[C@H](CO)O2)c(=O)n1 [LAMIVUDINE]	5.50	5.43	5.45	5.26	–	> 16	5.34	> 87.2 µM	5.72	5.41	5.35	–	–	–	–	–	–
Cc1ccnc2c1NC(=O)c1cccnc1N2C1CC1 [NEVIRAPINE]	5.91	5.14	6.74	< 4.82	–	–	< 4.82	> 15 µM	< 4.82	6.42	< 4.82	–	–	–	–	–	–
Cc1cn([C@H]2C[C@H](N=[N+]=[N-])[C@@H](CO)O2)c(=O)[nH]c1=O [ZIDOVUDINE]	8.31	7.92	7.92	< 4.55	> 714	> 645	8.10	> 7.49 µM	8.31	8.00	8.12	–	–	–	–	–	–

Source: ChEMBL document CHEMBL4359892, “Discovery of novel indolylarylsulfones as potent HIV-1 NNRTIs via structure-guided scaffold morphing” (Eur J Med Chem, 2019)
